Results published in ChEMBL document CHEMBL5291721, “A preclinical secondary pharmacology resource illuminates target-adverse drug reaction associations of marketed drugs” (Nat Commun, 2023).

Columns and labels:
[1] = biological target: T1, Muscarinic acetylcholine receptor M1 (Homo sapiens, UniProt P11229); type: functional, cell-based
T1 sequence (P11229 whole entry): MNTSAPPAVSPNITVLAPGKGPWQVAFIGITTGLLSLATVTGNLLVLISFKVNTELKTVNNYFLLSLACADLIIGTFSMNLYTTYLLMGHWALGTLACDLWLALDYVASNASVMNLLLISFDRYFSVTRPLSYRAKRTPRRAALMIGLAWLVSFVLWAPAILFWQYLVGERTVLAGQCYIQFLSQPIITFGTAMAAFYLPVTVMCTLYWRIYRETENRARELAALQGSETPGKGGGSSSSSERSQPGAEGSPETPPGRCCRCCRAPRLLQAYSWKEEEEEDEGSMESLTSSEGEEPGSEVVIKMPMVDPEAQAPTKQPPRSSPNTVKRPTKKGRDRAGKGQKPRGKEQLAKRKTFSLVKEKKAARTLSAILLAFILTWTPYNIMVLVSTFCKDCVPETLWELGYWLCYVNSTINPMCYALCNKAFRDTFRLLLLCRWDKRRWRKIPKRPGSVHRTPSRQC

[2] = biological target: T1, Muscarinic acetylcholine receptor M1; type: functional, cell-based; remark: listed apart in the source
[3] = biological target: 5-hydroxytryptamine receptor 2B (Homo sapiens, UniProt P41595)
Sequence of 5-hydroxytryptamine receptor 2B (P41595 whole entry): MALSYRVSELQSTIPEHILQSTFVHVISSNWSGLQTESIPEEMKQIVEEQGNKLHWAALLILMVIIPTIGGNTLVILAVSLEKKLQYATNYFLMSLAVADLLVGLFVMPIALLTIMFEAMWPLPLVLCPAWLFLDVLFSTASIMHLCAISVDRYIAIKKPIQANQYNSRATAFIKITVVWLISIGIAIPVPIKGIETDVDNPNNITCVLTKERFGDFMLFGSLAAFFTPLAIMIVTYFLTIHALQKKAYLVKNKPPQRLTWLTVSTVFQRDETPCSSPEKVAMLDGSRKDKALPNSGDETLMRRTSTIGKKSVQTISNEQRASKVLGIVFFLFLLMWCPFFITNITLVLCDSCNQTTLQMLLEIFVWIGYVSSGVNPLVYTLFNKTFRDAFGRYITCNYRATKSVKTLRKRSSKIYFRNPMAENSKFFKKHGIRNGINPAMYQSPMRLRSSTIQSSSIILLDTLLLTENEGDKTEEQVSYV

[4] = biological target: Voltage-dependent L-type calcium channel subunit alpha-1C (Homo sapiens, UniProt Q13936); type: functional, cell-based
Sequence of Voltage-dependent L-type calcium channel subunit alpha-1C (Q13936 whole entry): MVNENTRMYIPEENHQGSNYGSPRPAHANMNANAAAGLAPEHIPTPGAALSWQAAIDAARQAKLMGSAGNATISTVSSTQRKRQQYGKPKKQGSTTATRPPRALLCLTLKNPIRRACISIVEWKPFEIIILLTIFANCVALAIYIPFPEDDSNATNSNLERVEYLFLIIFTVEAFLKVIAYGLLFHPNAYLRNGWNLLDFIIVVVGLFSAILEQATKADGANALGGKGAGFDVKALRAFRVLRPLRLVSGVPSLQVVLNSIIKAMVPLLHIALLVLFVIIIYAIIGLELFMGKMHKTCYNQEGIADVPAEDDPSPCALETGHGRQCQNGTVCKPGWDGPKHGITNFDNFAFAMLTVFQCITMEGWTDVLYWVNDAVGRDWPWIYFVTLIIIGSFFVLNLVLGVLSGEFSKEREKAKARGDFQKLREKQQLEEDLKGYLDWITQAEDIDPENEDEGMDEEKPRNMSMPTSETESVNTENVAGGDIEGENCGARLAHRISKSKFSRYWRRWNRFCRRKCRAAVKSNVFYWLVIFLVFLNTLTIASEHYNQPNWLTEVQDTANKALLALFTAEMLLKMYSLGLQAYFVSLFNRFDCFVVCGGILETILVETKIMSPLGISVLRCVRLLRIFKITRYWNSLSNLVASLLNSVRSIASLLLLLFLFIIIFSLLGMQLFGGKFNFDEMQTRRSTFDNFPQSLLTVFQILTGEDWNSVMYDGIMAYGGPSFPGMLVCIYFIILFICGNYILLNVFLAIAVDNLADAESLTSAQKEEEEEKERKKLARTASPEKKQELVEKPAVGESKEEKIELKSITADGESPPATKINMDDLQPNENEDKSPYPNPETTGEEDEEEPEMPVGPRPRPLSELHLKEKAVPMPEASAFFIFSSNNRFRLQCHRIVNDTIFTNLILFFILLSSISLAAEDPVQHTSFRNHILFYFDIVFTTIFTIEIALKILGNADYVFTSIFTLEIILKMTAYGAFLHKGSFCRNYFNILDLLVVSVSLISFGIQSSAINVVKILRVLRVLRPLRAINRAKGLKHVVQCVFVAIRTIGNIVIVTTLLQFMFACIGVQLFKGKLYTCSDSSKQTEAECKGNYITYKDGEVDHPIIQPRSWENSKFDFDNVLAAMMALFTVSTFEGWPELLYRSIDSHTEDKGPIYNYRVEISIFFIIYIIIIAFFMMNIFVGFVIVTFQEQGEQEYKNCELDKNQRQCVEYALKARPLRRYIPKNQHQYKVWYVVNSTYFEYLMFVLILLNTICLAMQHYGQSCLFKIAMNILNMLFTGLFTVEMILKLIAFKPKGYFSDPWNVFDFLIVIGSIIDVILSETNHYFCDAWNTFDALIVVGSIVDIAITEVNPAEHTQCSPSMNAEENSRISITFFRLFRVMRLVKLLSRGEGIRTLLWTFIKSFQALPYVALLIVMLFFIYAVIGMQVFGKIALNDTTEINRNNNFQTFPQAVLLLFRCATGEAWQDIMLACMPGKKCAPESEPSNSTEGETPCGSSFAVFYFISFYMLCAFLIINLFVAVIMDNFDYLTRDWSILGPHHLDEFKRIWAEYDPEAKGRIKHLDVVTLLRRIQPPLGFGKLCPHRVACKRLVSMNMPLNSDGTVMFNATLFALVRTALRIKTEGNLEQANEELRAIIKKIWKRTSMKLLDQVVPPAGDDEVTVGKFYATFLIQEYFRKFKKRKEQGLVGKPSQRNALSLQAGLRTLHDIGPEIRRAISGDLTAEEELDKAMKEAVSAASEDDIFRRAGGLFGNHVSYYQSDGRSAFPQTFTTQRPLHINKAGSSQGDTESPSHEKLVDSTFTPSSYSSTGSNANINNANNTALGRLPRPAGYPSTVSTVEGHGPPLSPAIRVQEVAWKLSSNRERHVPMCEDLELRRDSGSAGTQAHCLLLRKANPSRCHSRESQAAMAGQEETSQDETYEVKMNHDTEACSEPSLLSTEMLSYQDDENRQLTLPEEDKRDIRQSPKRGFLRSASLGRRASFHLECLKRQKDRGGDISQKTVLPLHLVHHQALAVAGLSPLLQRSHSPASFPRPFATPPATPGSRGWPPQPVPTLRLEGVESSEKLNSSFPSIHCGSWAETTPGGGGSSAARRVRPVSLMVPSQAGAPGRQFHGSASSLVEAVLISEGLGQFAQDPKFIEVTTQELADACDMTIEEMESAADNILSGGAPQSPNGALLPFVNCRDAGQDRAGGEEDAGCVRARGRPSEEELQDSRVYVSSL

Thromboxane A2 receptor [5] = biological target: T2, Thromboxane A2 receptor (Homo sapiens, UniProt P21731); type: functional
T2 sequence (P21731 whole entry): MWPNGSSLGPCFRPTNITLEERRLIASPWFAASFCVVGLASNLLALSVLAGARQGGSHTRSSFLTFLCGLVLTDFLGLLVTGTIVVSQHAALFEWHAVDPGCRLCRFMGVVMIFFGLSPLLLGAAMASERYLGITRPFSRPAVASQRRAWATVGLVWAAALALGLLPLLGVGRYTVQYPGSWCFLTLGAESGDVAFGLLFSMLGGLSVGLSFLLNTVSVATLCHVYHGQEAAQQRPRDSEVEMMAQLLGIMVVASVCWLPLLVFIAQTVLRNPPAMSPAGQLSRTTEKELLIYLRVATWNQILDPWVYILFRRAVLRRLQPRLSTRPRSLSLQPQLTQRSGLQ

[6] = biological target: Vascular endothelial growth factor receptor 2 (Homo sapiens, UniProt P35968); type: functional
Sequence of Vascular endothelial growth factor receptor 2 (P35968 whole entry): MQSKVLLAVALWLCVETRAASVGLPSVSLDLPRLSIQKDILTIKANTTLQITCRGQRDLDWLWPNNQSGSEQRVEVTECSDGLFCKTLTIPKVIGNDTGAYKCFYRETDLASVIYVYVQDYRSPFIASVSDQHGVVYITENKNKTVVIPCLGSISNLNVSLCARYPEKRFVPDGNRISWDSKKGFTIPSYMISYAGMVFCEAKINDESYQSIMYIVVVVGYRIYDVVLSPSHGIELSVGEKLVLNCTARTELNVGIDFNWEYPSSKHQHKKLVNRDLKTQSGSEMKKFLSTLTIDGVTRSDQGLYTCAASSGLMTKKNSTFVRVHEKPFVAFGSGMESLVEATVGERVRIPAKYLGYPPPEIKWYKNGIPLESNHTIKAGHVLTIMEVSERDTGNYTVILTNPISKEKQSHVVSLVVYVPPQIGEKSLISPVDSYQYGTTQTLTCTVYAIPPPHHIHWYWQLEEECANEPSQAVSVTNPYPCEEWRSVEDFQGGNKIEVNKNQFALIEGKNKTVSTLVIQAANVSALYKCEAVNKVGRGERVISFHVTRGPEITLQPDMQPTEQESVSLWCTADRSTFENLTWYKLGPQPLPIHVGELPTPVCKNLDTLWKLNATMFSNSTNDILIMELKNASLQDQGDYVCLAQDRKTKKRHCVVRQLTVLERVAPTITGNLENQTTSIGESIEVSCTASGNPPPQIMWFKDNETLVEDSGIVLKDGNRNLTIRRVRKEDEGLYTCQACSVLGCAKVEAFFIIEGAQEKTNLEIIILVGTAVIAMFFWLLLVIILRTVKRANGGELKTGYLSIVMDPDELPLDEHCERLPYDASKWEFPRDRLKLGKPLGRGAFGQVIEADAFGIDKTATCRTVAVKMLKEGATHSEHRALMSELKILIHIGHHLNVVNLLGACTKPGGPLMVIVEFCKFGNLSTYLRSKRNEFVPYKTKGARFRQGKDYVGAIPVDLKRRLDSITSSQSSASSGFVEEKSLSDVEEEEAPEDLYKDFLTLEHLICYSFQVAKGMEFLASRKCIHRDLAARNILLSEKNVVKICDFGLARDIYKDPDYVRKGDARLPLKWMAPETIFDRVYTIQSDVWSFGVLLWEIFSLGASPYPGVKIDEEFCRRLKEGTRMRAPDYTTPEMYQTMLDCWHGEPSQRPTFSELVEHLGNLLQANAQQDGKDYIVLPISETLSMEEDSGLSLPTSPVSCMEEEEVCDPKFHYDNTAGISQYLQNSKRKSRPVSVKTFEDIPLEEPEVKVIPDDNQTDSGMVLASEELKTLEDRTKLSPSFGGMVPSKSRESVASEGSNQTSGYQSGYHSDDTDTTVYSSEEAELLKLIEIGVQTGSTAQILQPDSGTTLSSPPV

Thromboxane A2 receptor [7] = biological target: T2, Thromboxane A2 receptor; type: functional, cell-based
Note: assay procedure not described here.

Q: Which results are given for C[N+]1(C)CCC(=C(c2ccccc2)c2ccccc2)CC1?
A: AC50 [1]: > 30 µM; AC50 [2]: 0.12 µM

Q: CC(Cc1cccc(C(F)(F)F)c1)NCCOC(=O)c1ccccc1 (configuration not stated) [BENFLUOREX] was tested. Which AC50 [3] did it give?
A: 0.933 µM

Q: For Cc1cccc(C)c1NC(=O)CC12CCCN1CCC2 [PILSICAINIDE], which AC50 [4] is on record?
A: > 50 µM

Q: With CC(C)c1cccc(C(C)C)c1O [PROPOFOL] as the molecule, how does the AC50 (Thromboxane A2 receptor [5]) read?
A: > 30 µM

Q: And the AC50 [6]?
A: > 30 µM

Q: What about the AC50 (Thromboxane A2 receptor [7]) of the same molecule?
A: > 30 µM
